Each block holds one compound with its values, some of them ahead of it. The source made the active and inactive calls. The calls are words filed in the database; no cut-off is given here.
Legend:
Beta-secretase 1 [1] = biological target: T1, Beta-secretase 1 (Homo sapiens, UniProt P56817); assay: Inhibition of BACE1 (unknown origin)
Homo sapiens [2] = organism: Homo sapiens; assay: Inhibition of chymotrypsin (unknown origin) up to 1 mM
Trypsin (Homo sapiens) = Trypsin (Homo sapiens) (UniProt P07477+P07478+P35030); assay: Inhibition of trypsin (unknown origin) up to 1 mM; type: protein assay
[3] = biological target: Beta-secretase 1 (Mus musculus) (UniProt P56818); assay: Inhibition of BACE1 in mouse N2A cells transfected with human APP Swedish mutant assessed as amyloid beta (1-42) production at 50 uM; type: cell-based; design: scale not given: the % may be the effect or the level left
Beta-secretase 1 [4] = biological target: T1, Beta-secretase 1; assay: Non-competitive inhibition of BACE1 (unknown origin) by Dixon plot analysis
N2a = assay: Cytotoxicity against mouse N2A cells transfected with human APP Swedish mutant assessed as cell viability at 1 to 50 uM; type: cell-based
Homo sapiens [5] = organism: Homo sapiens; assay: Inhibition of elastase (unknown origin) up to 1 mM
Beta-secretase 1 [6] = biological target: T1, Beta-secretase 1; assay: Inhibition of BACE1 (unknown origin) expressed in CHO cells coexpressing human APP gene assessed as inhibition of beta-amyloid synthesis; type: cell-based

T1 sequence (P56817 whole entry): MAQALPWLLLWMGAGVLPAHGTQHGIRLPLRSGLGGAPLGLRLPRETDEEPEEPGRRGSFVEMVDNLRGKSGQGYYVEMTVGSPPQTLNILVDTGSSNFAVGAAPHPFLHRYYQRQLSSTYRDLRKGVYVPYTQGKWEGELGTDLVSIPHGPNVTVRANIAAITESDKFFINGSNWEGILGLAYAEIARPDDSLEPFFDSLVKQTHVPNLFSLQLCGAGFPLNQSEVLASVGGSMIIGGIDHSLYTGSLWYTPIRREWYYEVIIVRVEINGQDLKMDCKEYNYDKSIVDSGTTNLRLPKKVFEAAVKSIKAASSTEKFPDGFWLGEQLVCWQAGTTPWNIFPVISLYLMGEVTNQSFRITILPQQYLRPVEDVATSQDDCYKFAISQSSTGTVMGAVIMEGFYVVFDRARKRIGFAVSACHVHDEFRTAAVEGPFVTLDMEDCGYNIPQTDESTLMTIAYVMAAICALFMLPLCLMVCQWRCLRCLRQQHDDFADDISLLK
Beta-secretase 1 (Mus musculus), sequence (P56818 whole entry): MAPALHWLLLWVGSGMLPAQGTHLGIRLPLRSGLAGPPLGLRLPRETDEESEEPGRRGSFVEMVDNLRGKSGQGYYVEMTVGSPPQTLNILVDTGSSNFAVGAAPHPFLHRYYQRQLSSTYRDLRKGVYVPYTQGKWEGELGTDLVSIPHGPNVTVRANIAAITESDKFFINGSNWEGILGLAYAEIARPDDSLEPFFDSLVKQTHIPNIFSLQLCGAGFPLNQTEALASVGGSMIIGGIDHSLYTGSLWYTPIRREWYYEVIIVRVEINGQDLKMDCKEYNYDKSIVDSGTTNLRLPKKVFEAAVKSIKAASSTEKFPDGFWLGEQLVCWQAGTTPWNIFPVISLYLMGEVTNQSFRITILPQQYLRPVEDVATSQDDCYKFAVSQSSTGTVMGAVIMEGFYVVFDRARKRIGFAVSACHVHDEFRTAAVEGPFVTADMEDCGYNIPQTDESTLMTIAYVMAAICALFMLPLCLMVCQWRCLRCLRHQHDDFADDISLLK

IC50 (Beta-secretase 1 [1]): 3.9 µM
Compound: O=c1oc2c(O)c(O)cc3c(=O)oc4c(O)c(O)cc1c4c23 [ELLAGIC ACID]

IC50 (Beta-secretase 1 [1]): 4.24 µM
inhibition (Beta-secretase 1 [1]): Dose-dependent effect
inhibition (Homo sapiens [2]): inactive
inhibition (Trypsin (Homo sapiens)): inactive
Activity [3]: 56%
Ki (Beta-secretase 1 [4]): 4.28 µM
inhibition (Homo sapiens [5]): inactive
Compound: COc1cc2oc3c(c(=O)c2c(O)c1C)-c1ccc(O)cc1OC3O (centres undefined)
Activity (N2a): Non-toxic

IC50 (Beta-secretase 1 [1]): > 3000 µM
Compound: COc1cc2oc3c(c(=O)c2c(O)c1C)-c1ccccc1OC3OC (centres undefined)

IC50 (Beta-secretase 1 [1]): 3.1 µM
Ki (Beta-secretase 1 [1]): 6.84 µM
Compound: O=C(O[C@@H]1O[C@@H]2COC(=O)c3cc(O)c(O)c(O)c3-c3c(cc(O)c(O)c3O)C(=O)O[C@H]2[C@H](OC(=O)c2cc(O)c(O)c(O)c2)[C@H]1OC(=O)c1cc(O)c(O)c(O)c1)c1cc(O)c(O)c(O)c1 [EUGENIIN]

IC50 (Beta-secretase 1 [1]): 4.77 µM
inhibition (Beta-secretase 1 [1]): Dose-dependent effect
inhibition (Homo sapiens [2]): inactive
inhibition (Trypsin (Homo sapiens)): inactive
Ki (Beta-secretase 1 [4]): 5.01 µM
inhibition (Homo sapiens [5]): inactive
Compound: COC1Oc2cc(O)ccc2-c2c1oc1cc(O)c(C)c(O)c1c2=O (centres undefined) [BOERAVINONE D]

The remaining lines, values behind:

Compound: O=C1O[C@@H]2[C@@H](OC(=O)c3cc(O)c(O)c(O)c3-c3c1cc(O)c(O)c3O)[C@H](O)O[C@@H]1COC(=O)c3cc(O)c(O)c(O)c3-c3c(O)c(O)c4oc(=O)c5c(c(O)c(O)c6oc(=O)c3c4c65)-c3c(cc(O)c(O)c3O)C(=O)O[C@@H]21 [PUNICALAGIN]
IC50 (Beta-secretase 1 [1]): 0.41 µM

Compound: O=C(OC[C@H]1O[C@@H](OC(=O)c2cc(O)c(O)c(O)c2)[C@H](OC(=O)c2cc(O)c(O)c(O)c2)[C@@H](OC(=O)c2cc(O)c(O)c(O)c2)[C@@H]1OC(=O)c1cc(O)c(O)c(O)c1)c1cc(O)c(O)c(O)c1 [PENTAGALLOYL GLUCOSE]
IC50 (Beta-secretase 1 [1]): 3.76 µM
Ki (Beta-secretase 1 [1]): 5.13 µM

Compound: COc1cc2c(c(O)c1C)C(=O)[C@@]1(O)c3cccc(OC)c3OC[C@@H]1O2
IC50 (Beta-secretase 1 [1]): 62.2 µM
inhibition (Beta-secretase 1 [1]): Dose-dependent effect

Compound: C=C[C@H](c1ccccc1O)c1cc(O)c(OC)cc1OC [LATIFOLIN]
IC50 (Beta-secretase 1 [6]): 180 µM

Source: ChEMBL document CHEMBL3286369, “β-Secretase (BACE1)-inhibiting C-methylrotenoids from Abronia nana suspension cultures” (Bioorg Med Chem Lett, 2014)
